Results from patent publication US10487068B2, “Pyridazine derivatives as RORc modulators” (Genentech, Inc., priority 2015, dated 2019).

What follows are compounds tested against T1, RORc ligand binding domain (Homo sapiens, UniProt P51449) (assay: In Vitro RORc Ligand Binding Assay). Conditions: RORc IC50, radioligand 25-[3H]hydroxycholesterol 6 nM; 0.6 ug/mL RORc receptor; 3 h at 25° C.
T1 sequence (P51449 269-508 limits assumed): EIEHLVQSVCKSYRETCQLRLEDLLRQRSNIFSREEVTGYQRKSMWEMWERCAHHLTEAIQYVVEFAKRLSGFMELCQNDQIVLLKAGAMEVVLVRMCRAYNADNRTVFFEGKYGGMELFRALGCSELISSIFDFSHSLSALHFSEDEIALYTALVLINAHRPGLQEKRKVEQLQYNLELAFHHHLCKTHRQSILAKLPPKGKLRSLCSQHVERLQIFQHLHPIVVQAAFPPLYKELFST

SMILES | IC50
CC1(C)[C@H]2CC[C@]1(c1cccc(-c3nc([C@@H](O)C(F)(F)F)n[nH]3)n1)c1nnc(-c3c(F)cccc3F)cc12 [Example 339, (R)-1-(5-(6-((5R,8S)-3-(2,6-difluorophenyl)-9,9-dimethyl-5,6,7,8-tetrahydro-5,8-methanocinnolin-8-yl)pyridin-2-yl)-1H-1,2,4-triazol-3-yl)-2,2,2-trifluoroethanol] | 5.6 nM
CC1(C)[C@H]2CC[C@]1(c1cccc(-c3nc([C@H](O)C(F)(F)F)n[nH]3)n1)c1nnc(-c3c(F)cccc3F)cc12 [Example 340, (S)-1-(5-(6-((5R,8S)-3-(2,6-difluorophenyl)-9,9-dimethyl-5,6,7,8-tetrahydro-5,8-methanocinnolin-8-yl)pyridin-2-yl)-1H-1,2,4-triazol-3-yl)-2,2,2-trifluoroethanol] | 3.6 nM
CC1(C)[C@H]2CC[C@]1(c1cncc(-c3nc(C#N)co3)n1)c1nnc(-c3c(F)cccc3F)cc12 [Example 341, 2-(6-((5R,8S)-3-(2,6-difluorophenyl)-9,9-dimethyl-5,6,7,8-tetrahydro-5,8-methanocinnolin-8-yl)pyrazin-2-yl)oxazole-4-carbonitrile] | 3.4 nM
CC(C)(O)c1cnc(-c2cncc([C@@]34CC[C@@H](c5cc(-c6c(F)cccc6F)nnc53)C4(C)C)n2)o1 [Example 342, 2-(2-(6-((5R,8S)-3-(2,6-difluorophenyl)-9,9-dimethyl-5,6,7,8-tetrahydro-5,8-methanocinnolin-8-yl)pyrazin-2-yl)oxazol-5-yl)propan-2-ol] | 11.7 nM
C=C(C)c1cnc(-c2cncc([C@@]34CC[C@@H](c5cc(-c6c(F)cccc6F)nnc53)C4(C)C)n2)o1 [Example 343, 2-(6-((5R,8S)-3-(2,6-difluorophenyl)-9,9-dimethyl-5,6,7,8-tetrahydro-5,8-methanocinnolin-8-yl)pyrazin-2-yl)-5-(prop-1-en-2-yl)oxazole] | 1.6 nM
CC(C)(C)OC(=O)N1CC=C(c2nccc([C@@]34CC[C@@H](c5cc(-c6c(F)cccc6F)nnc53)C4(C)C)n2)CC1 [Example 344] | 1.7 nM
CC(C)(C)OC(=O)N1CCC(c2nccc([C@@]34CC[C@@H](c5cc(-c6c(F)cccc6F)nnc53)C4(C)C)n2)CC1 [Example 345] | 13 nM
CC(C)OC(=O)c1coc(-c2cncc([C@@]34CC[C@@H](c5cc(-c6c(F)cccc6F)nnc53)C4(C)C)n2)n1 [Example 346, isopropyl 2-(6-((5R,8S)-3-(2,6-difluorophenyl)-9,9-dimethyl-5,6,7,8-tetrahydro-5,8-methanocinnolin-8-yl)pyrazin-2-yl)oxazole-4-carboxylate] | 3.7 nM
CC(C)(O)c1ncc(-c2cncc([C@@]34CC[C@@H](c5cc(-c6c(F)cccc6F)nnc53)C4(C)C)n2)o1 [Example 347, 2-(5-(6-((5R,8S)-3-(2,6-difluorophenyl)-9,9-dimethyl-5,6,7,8-tetrahydro-5,8-methanocinnolin-8-yl)pyrazin-2-yl)oxazol-2-yl)propan-2-ol] | 6.8 nM
C[C@@H](O)c1ccn(-c2nccc([C@@]34CC[C@@H](c5cc(-c6c(F)cccc6F)nnc53)C4(C)C)n2)n1 [Example 348] | 10.6 nM
CC1(C)[C@H]2CC[C@]1(c1ccnc(C3CCN(S(C)(=O)=O)CC3)n1)c1nnc(-c3c(F)cccc3F)cc12 [Example 349] | 6.3 nM
CC(C)(O)c1coc(-c2nccc([C@@]34CC[C@@H](c5cc(-c6c(F)cccc6F)nnc53)C4(C)C)n2)n1 [Example 350] | 16.4 nM
CC(=O)N1CCC(c2nccc([C@@]34CC[C@@H](c5cc(-c6c(F)cccc6F)nnc53)C4(C)C)n2)CC1 [Example 351] | 10.5 nM
Cc1nc(C)n(-c2nccc([C@@]34CC[C@@H](c5cc(-c6c(F)cccc6F)nnc53)C4(C)C)n2)n1 [Example 352] | 15.2 nM
C[C@H](O)c1ccn(-c2nccc([C@@]34CC[C@@H](c5cc(-c6c(F)cccc6F)nnc53)C4(C)C)n2)n1 [Example 353] | 10.8 nM
CC(C)(O)Cc1n[nH]c(-c2cncc([C@@]34CC[C@@H](c5cc(-c6c(F)cccc6F)nnc53)C4(C)C)n2)n1 [Example 354, 1-(5-(6-((5R,8S)-3-(2,6-difluorophenyl)-9,9-dimethyl-5,6,7,8-tetrahydro-5,8-methanocinnolin-8-yl)pyrazin-2-yl)-1H-1,2,4-triazol-3-yl)-2-methylpropan-2-ol] | 20.7 nM
CC1(C)[C@H]2CC[C@]1(c1ccnc(C3CCN(C(=O)CO)CC3)n1)c1nnc(-c3c(F)cccc3F)cc12 [Example 355] | 12.4 nM
CC1(C)[C@H]2CC[C@]1(c1ccnc(C3CCOCC3)n1)c1nnc(-c3c(F)cccc3F)cc12 [Example 356] | 2.4 nM
CC(C)(C#N)c1n[nH]c(-c2cccc([C@@]34CC[C@@H](c5cc(-c6c(F)cccc6F)nnc53)C4(C)C)n2)n1 [Example 357, 2-(5-(6-((5R,8S)-3-(2,6-difluorophenyl)-9,9-dimethyl-5,6,7,8-tetrahydro-5,8-methanocinnolin-8-yl)pyridin-2-yl)-1H-1,2,4-triazol-3-yl)-2-methylpropanenitrile] | 13 nM
Cc1nc(CO)nn1-c1nccc([C@@]23CC[C@@H](c4cc(-c5c(F)cccc5F)nnc42)C3(C)C)n1 [Example 358] | 60.4 nM

SMILES | IC50
CC1(C)[C@H]2CC[C@]1(c1ccnc(-n3cnc(=O)[nH]3)n1)c1nnc(-c3c(F)cccc3F)cc12 [Example 359] | 17.3 nM
Cc1nc(=O)[nH]n1-c1nccc([C@@]23CC[C@@H](c4cc(-c5c(F)cccc5F)nnc42)C3(C)C)n1 [Example 360] | 127 nM
CC(C)(C)OC(=O)N1CCC[C@@H](c2nccc([C@@]34CC[C@@H](c5cc(-c6c(F)cccc6F)nnc53)C4(C)C)n2)C1 [Example 361] | 20.1 nM
CC(C)(C)OC(=O)N1CCCC(c2nccc([C@@]34CC[C@@H](c5cc(-c6c(F)cccc6F)nnc53)C4(C)C)n2)C1 (stereo partly shown) [Example 362] | 15.8 nM
Cc1ncnn1-c1ncc(F)c([C@@]23CC[C@@H](c4cc(-c5c(F)cccc5F)nnc42)C3(C)C)n1 [Example 363] | 33.5 nM
CC1(C)[C@H]2CC[C@]1(c1ccnc(C3CCCN(C(=O)CO)C3)n1)c1nnc(-c3c(F)cccc3F)cc12 (stereo partly shown) [Example 364] | 50.4 nM
CC1(C)[C@H]2CC[C@]1(c1cncc(-c3nc([C@H](O)C(F)(F)F)co3)n1)c1nnc(-c3c(F)cccc3F)cc12 [Example 366, (S)-1-(2-(6-((5R,8S)-3-(2,6-difluorophenyl)-9,9-dimethyl-5,6,7,8-tetrahydro-5,8-methanocinnolin-8-yl)pyrazin-2-yl)oxazol-4-yl)-2,2,2-trifluoroethanol] | 3.5 nM
Cc1ccn(-c2nccc([C@@]34CC[C@@H](c5cc(-c6c(F)cccc6F)nnc53)C4(C)C)n2)n1 [Example 367] | 3.1 nM
CC1(C)[C@H]2CC[C@]1(c1ccnc(-n3cnc(CO)n3)n1)c1nnc(-c3c(F)cccc3F)cc12 [Example 368] | 5.4 nM
CC1(C)[C@H]2CC[C@]1(c1cncc(-c3nc(CS(C)(=O)=O)co3)n1)c1nnc(-c3c(F)cccc3F)cc12 [Example 369, 2-(6-((5R,8S)-3-(2,6-difluorophenyl)-9,9-dimethyl-5,6,7,8-tetrahydro-5,8-methanocinnolin-8-yl)pyrazin-2-yl)-4-((methylsulfonyl)methyl)oxazole] | 3.6 nM
CC(C)(O)c1ccc(-c2nccc([C@@]34CC[C@@H](c5cc(-c6c(F)cccc6F)nnc53)C4(C)C)n2)cn1 [Example 370] | 4.4 nM
CC(C)(O)c1coc(-c2cncc([C@@]34CC[C@@H](c5cc(-c6c(F)cccc6Cl)nnc53)C4(C)C)n2)n1 [Example 371, 2-(2-(6-((5R,8S)-3-(2-chloro-6-fluorophenyl)-9,9-dimethyl-5,6,7,8-tetrahydro-5,8-methanocinnolin-8-yl)pyrazin-2-yl)oxazol-4-yl)propan-2-ol] | 3.3 nM
CC(C)(O)c1cc(-c2nccc([C@@]34CC[C@@H](c5cc(-c6c(F)cccc6F)nnc53)C4(C)C)n2)ccn1 [Example 372] | 2.6 nM
CC1(C)[C@H]2CC[C@]1(c1ccnc(-c3ccc(C(N)=O)nc3)n1)c1nnc(-c3c(F)cccc3F)cc12 [Example 373] | 4 nM
CC1(C)[C@H]2CC[C@]1(c1ccnc(-c3ccc(CO)nc3)n1)c1nnc(-c3c(F)cccc3F)cc12 [Example 374] | 5.5 nM
Cc1ncn(-c2cncc([C@]34CC[C@H](c5cc(-c6c(F)cccc6F)nnc53)C4(C)C)n2)n1 [Example 375] | 10.4 nM
CC1(C)[C@H]2CC[C@]1(c1cncc(C(=O)N[C@@H]3COC(=O)C3)n1)c1nnc(-c3c(F)cccc3F)cc12 [Example 376, 6-((5R,8S)-3-(2,6-difluorophenyl)-9,9-dimethyl-5,6,7,8-tetrahydro-5,8-methanocinnolin-8-yl)-N-((S)-5-oxotetrahydrofuran-3-yl)pyrazine-2-carboxamide] | 27.2 nM
CCC(O)(CC)c1coc(-c2cncc([C@@]34CC[C@@H](c5cc(-c6c(F)cccc6F)nnc53)C4(C)C)n2)n1 [Example 377, 3-(2-(6-((5R,8S)-3-(2,6-difluorophenyl)-9,9-dimethyl-5,6,7,8-tetrahydro-5,8-methanocinnolin-8-yl)pyrazin-2-yl)oxazol-4-yl)pentan-3-ol] | 5.3 nM
C[C@H](O)c1coc(-c2cncc([C@@]34CC[C@@H](c5cc(-c6c(F)cccc6F)nnc53)C4(C)C)n2)n1 [Example 378, (S)-1-(2-(6-((5R,8S)-3-(2,6-difluorophenyl)-9,9-dimethyl-5,6,7,8-tetrahydro-5,8-methanocinnolin-8-yl)pyrazin-2-yl)oxazol-4-yl)ethanol] | 6.8 nM
C[C@@H](O)c1coc(-c2cncc([C@@]34CC[C@@H](c5cc(-c6c(F)cccc6F)nnc53)C4(C)C)n2)n1 [Example 379, (R)-1-(2-(6-((5R,8S)-3-(2,6-difluorophenyl)-9,9-dimethyl-5,6,7,8-tetrahydro-5,8-methanocinnolin-8-yl)pyrazin-2-yl)oxazol-4-yl)ethanol] | 7.4 nM
